From PubChem BioAssay (NCI)
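Test compounds were applied to cells in 96-well plates for 48 hours at 5 doses. GI50: concentration for 50% inhibition of growth. TGI: concentration producing complete growth inhibition.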

What was measured:
Experiment in all cases: DTP human tumour cell line panel, 48 h
ACHN renal = tested on: ACHN renal
COLO 205 colon = tested on: COLO 205 colon
EKVX NSCLC = tested on: EKVX NSCLC
M14 melanoma = tested on: M14 melanoma
NCI-H226 lung = tested on: NCI-H226 lung
SK-MEL-2 melanoma = tested on: SK-MEL-2 melanoma
SR leukemia = tested on: SR leukemia
TK-10 renal = tested on: TK-10 renal
UO-31 renal = tested on: UO-31 renal
HOP-92 NSCLC = tested on: HOP-92 NSCLC
NCI-H23 lung = tested on: NCI-H23 lung

Compound	TGI (ACHN renal) [µM]	TGI (COLO 205 colon) [µM]	TGI (EKVX NSCLC) [µM]	TGI (M14 melanoma) [µM]	TGI (NCI-H226 lung) [µM]	TGI (SK-MEL-2 melanoma) [µM]	TGI (SR leukemia) [µM]	TGI (TK-10 renal) [µM]	TGI (UO-31 renal) [µM]	TGI (HOP-92 NSCLC) [µM]	TGI (NCI-H23 lung) [µM]	GI50 (COLO 205 colon) [µM]	GI50 (EKVX NSCLC) [µM]	GI50 (HOP-92 NSCLC) [µM]	GI50 (M14 melanoma) [µM]	GI50 (NCI-H226 lung) [µM]	GI50 (NCI-H23 lung) [µM]	GI50 (SK-MEL-2 melanoma) [µM]	GI50 (TK-10 renal) [µM]	GI50 (UO-31 renal) [µM]
CCOC(=O)CN=C1Nc2ccccc2C(=O)N2CSCC12 (stereo not drawn)	> 100	> 100	> 100	> 100	> 100	> 100	> 100	> 100	> 100											
N#CC(c1nc2ccccc2s1)c1nc(Cl)ncc1Br (stereo not drawn)	> 100	> 100	> 100	> 100	> 100			> 100	> 100	52	73.9									
Cc1ccc(S(=O)(=O)NC(=O)NC(Cc2ccccc2)C(=O)O)cc1 (stereo not drawn)	> 100	> 100		> 100		> 100	> 100	> 100	> 100	> 100	> 100									
COc1cc2c(cc1OC)C1=Cc3ccc(OC)c(OC)c3C(C#N)N1CC2 (stereo not drawn)	> 100	43.8	> 100	> 100	> 100	43.4		> 100	> 100		> 100									
CCOC(=O)c1[nH]cnc1/N=N/N(C)N	> 100	> 100	> 100	> 100	> 100	> 100		> 100	> 100		> 100									
CC1(C)CC(=O)C2=C(C1)NC(SCC(=O)O)=C(C#N)C2c1ccc(Br)cc1 (stereo not drawn)	> 100	> 100	> 100	> 100	> 100	> 100		> 100	15.6	> 100	> 100									
O=c1[nH]c(=S)c2cc3c(=S)[nH]c(=O)n(CCC(c4ccccc4)(c4ccccc4)c4ccccc4)c3nc2n1CCC(c1ccccc1)(c1ccccc1)c1ccccc1	> 100	> 100	> 100	> 100	> 100	> 100		> 100	> 100	> 100	> 100									
CC(C)=CC(C)C(C(O)CCC1(c2ccoc2)OCCO1)S(=O)(=O)c1ccccc1 (stereo not drawn)	> 100	> 100	> 100	> 100	> 100	> 100		> 100	> 100		> 100									
OCc1c2c(cc3c1CC1(C3)Cc3cc4c(c(CO)c3C1)CCC4)CCC2	22.6	42.4	30.5	32.9	28.5	36.7		36.2	3.22	33.1	29.8									
O=c1c(/C=C/c2c(O)ccc3ccccc23)nnc2sc(-c3cccc([N+](=O)[O-])c3)nn12	> 100	> 100	79.4	68.4		70.1	> 100	89.3	> 100	> 100	> 100									
O=c1[nH]nc(Cc2ccccc2)n1/N=C/c1ccc([N+](=O)[O-])o1	27.4	> 100	16.7	7.1	29.5	16		17.6	> 100	30.1	74.8									
[N-]=[N+]=NC1=NNC2(C(=O)N1)c1ccccc1-c1ccccc12	> 100	> 100	> 100	> 100	> 100	> 100		> 100	> 100	> 100	> 100									
O=c1[nH]c2nccnc2c2c([N+](=O)[O-])cccc12	> 100	> 100	> 100	> 100	> 100	> 100	> 100	> 100	> 100		> 100									
COc1ccc(C2c3cc4c(cc3OC(NNC(N)=O)C2C)OCO4)cc1 (stereo not drawn)	> 100	15	> 100	> 60.1	> 76.2	> 100		> 100	> 90.5	78.7	> 86.1									
c1ccc2c(c1)CCN(C1=NCCO1)C2	> 10	> 10	> 10	> 10	> 10	> 10		> 10	> 10	> 10	> 10									
C\C=C/C=C/C=C/C(=O)O	> 100	> 100	> 100	> 100	> 100	> 100			> 100		> 100									

Compound	TGI (ACHN renal) [µM]	TGI (COLO 205 colon) [µM]	TGI (EKVX NSCLC) [µM]	TGI (M14 melanoma) [µM]	TGI (NCI-H226 lung) [µM]	TGI (SK-MEL-2 melanoma) [µM]	TGI (SR leukemia) [µM]	TGI (TK-10 renal) [µM]	TGI (UO-31 renal) [µM]	TGI (HOP-92 NSCLC) [µM]	TGI (NCI-H23 lung) [µM]	GI50 (COLO 205 colon) [µM]	GI50 (EKVX NSCLC) [µM]	GI50 (HOP-92 NSCLC) [µM]	GI50 (M14 melanoma) [µM]	GI50 (NCI-H226 lung) [µM]	GI50 (NCI-H23 lung) [µM]	GI50 (SK-MEL-2 melanoma) [µM]	GI50 (TK-10 renal) [µM]	GI50 (UO-31 renal) [µM]
COc1cc(C(=O)O[C@H](C(=O)NCCNC(=O)[C@@H](OC(=O)c2cc(OC)cc3c(C)cccc23)[C@]2(C)CO2)[C@]2(C)CO2)c2cccc(C)c2c1			1.55	0.696	2.11			1.9		0.404	0.0987	0.149	0.21	0.101	0.178	0.66	< 0.01	< 0.0461	0.475	0.137
Nc1nc2cc(CNc3ccc(C(=O)O)cc3)ccc2nc1-c1ccccc1	> 100	> 100		> 100	> 100	> 100	> 100	> 100	> 100		> 100									
CC1=NC2(CCCCC2)N(Cl)C(=O)C1SC#N (stereo not drawn)	31.6	> 100	31.9	34.4	40.1	48.2	> 100	35.1	32.9		58.9									
CCCN=C1Nc2ccccc2[C@@H]2N(C)c3ccccc3C(C)C[C@]12C (stereo partly drawn)	60.5	38	> 100	33	73.4	28.1		34.2	98.9		37.3									
Fc1ccc(C2NC(=S)NC3=C2CCOc2c3ccc3ccccc23)cc1 (stereo not drawn)	> 100	30.3	> 100	> 100		> 100		> 100	> 100	> 100	> 100									
COC(=O)c1c(C)ccc2c(O)c3c(cc12)C(=O)c1c2c(cc(O)c1C3=O)C1(C)OC(C)(O2)C(O)C(N(C)C)C1O (stereo not drawn)	4.67	7.56	8.75	10.4	11.5	5.65		2.68	9.27	> 100	3.03									
COC(=O)C1=COC(C)C2C[n+]3ccc4c([nH]c5ccccc54)c3CC12 (stereo not drawn)	> 100	> 100	> 100	> 100	> 100	> 100		> 100	> 100	> 100	> 100									
CC1(C)C2CCC1(C)C(N/C(=C(/C(Cl)=C(Cl)Cl)[N+](=O)[O-])n1nnc3ccccc31)C2 (stereo not drawn)	42.1	34.4	> 100	> 100	50.3	61			51		52.2									
C/C=C1/CN2[C@@H](C3=C[C@@H]4[C@@H]5N(C3=O)c3ccccc3[C@@]53CCN5C/C(=C/C)[C@@H]4C[C@H]53)C[C@@]34c5ccccc5N5C(=O)CC=C([C@H]1C[C@H]23)[C@H]54	12.1	7.54	12.1	2.37	16.5	11.6		15	8.34	13.2	14.3									
c1nncn1C12C3C4C5C3C1C5C42 (stereo not drawn)	> 100	> 100	> 100		> 100	> 100	> 100	> 100			> 100									
Cc1ccc(S(=O)(=O)N(CC(O)c2ccccc2)c2ccccc2F)cc1 (stereo not drawn)	40.1	28.8	> 100	31.9	48.7	32.1		45.8	29.8	22.9	36.9									
NC(Cc1ccccc1)=NCC(=O)O	> 100	> 100	> 100	> 100	> 100	> 100		> 100	> 100	> 100	> 100									
COc1ccc(/C=C2\Sc3nnc(C)n3N=C2c2cc(F)c(Cl)cc2Cl)cc1OC	27.1	54.3	22.7	27.5	51.8	33.6		32.8	22.6	28.6	26.7									
NNC(=O)Cc1cccnc1	> 100	> 100	> 100	> 100		> 100		> 100	> 100	> 100	> 100									
CC(=O)N1CC(C)(C)c2c1cc(C)c(O)c2C	> 100	> 100	> 100	> 100	> 100	> 100		> 100	> 100		> 100									
Cc1cccc(/C=N/NC(=S)N2CCCCCC2)n1	1.71	0.632	9.32	0.441	7.46	19.2		4.8	9.91	> 89.1	> 37.1									
